Experimental data from patent publication US6235493A, “Amino acid substituted-cresyl violet, synthetic fluorogenic substrates for the analysis of agents in individual in vivo cells or tissue” (priority 1998, dated 2001).
Starred links: 1 amine or outer side, 2 acyl side, 3 side chain; linkers in the order of their positions; H or OH if unused. Non-standard residues stand in square brackets, D forms with d. Residues, ends and D or L forms follow the SMILES beside them. *: point of attachment. hPhe = N[C@@H](CCc1ccccc1)C(=O)O; Morpholide = C1CN(*)CCO1; CO = O=C([*:1])[*:2]; CH2F = FC*

Experiments:
[1] = test system: CC531 colon cancer cells; test: Colon cancer (CC531) metastasis in rat liver: number and volume of tumors per lobe; assay type: in vivo
Procedure: Induction of Metastasis in Rat Liver
Colon carcinoma tumors were induced in rat liver by injection of a single cell suspension containing 1×10^6 CC531 cells into the portal vein of 32 mature male WAG-Rij rats, weighing 180-200 g (Broekman, Someren, The Netherlands) as described previously in detail (46,51,52).
Treatment of Rats with FMK
Sixteen rats were treated orally with 20 mg FMK per kg body weight dissolved in PBS and 5% dimethylformamide daily for 14 days starting one week before administration of the CC531 cells and continuing until sacrifice. Oral administration was performed directly into the stomach with a plastic tube attached to a syringe. Dosage and type of treatment were selected on the basis of previous experiments in which rats were treated with FMK-related inhibitors of cathepsins (34,40,53). The other 16 animals were treated similarly with PBS and dimethylformamide only. The LD50 of this type of FMK is at least 20-fold higher than the dosages used in the present experiment (40,53).
Preparation of Cryostat Sections of Liver
Seven days after administration of CC531 cells, the animals were weighed and sacrificed with an overdose of sodium pentobarbital. Livers were removed immediately, the individual lobes were weighed and dissected and cut into small pieces (up to 5 mm thick) according to a rigid dissection scheme. The left lateral lobe was cut into eight pieces, the median lobe into nine pieces, the right lateral and caudate lobes into four pieces. Tissue fragments were frozen in liquid nitrogen and the material was kept at -80° C. until further use. Twenty-one sites were randomly selected in all lobes of each liver before the experiments were carried out. From these sites, sections (8 μm thick) were cut on a motor-drivencryostat with a rotary retracting microtome (Bright, Huntingdon, UK) at a constant but low speed and a cabinet temperature of -25° C. Sections were picked up onto clean glass slides and stored in the cryostat cabinet until used. These methods have been described in detail in Reference 54.
Staining of Tissue Sections
To facilitate recognition of cancer cells, cryostat sections were stained either with the periodic acid Schiff (PAS) reaction (54) or immunohistochemically using the lectin Ulex europaeus agglutinin I (Dako, Glostrup, Denmark), a selective marker of CC531 cells in rat (51,55). Immunocompetenet cells, endothelial cells and components of the extracellular matrix were localized with a panel of antibodies (Table 1) as described in detail by Griffini et al. (52). Control incubations were performed by replacing the first antibodies by non-immune sera in the same dilutions.
For calculation of the number and percentage volume of tumors in each liver lobe, the 8 micron thick sections were analyzed morphometrically using a Quantimet Q500 (Leica, Cambridge, UK) after staining with the lectin Ulex for the detection of cancer cells. The number of tumors was expressed per unit volume of liver tissue ±standard error of the mean or as ratio of the number of tumors in FMK-treated rats and those in untreated rats (×100). The percentage volume of tumors was expressed as the ratio of the volume of tumors and the total volume of the liver tissue including tumors ±standard error of the mean. Statistical analysis was performed with the 2-tailed Mann-Whitney test using the software program JPM (SAS Institute, Cary, N.C.).
The number of tumors is expressed per unit volume of liver tissue ± SEM or as the ratio of the number of tumors in treated rats compared with untreated rats (×100; %) as determined morphometrically in 8 μm thick cryostat sections stained with the lectin Ulex europaeus agglutinin I. Differences in number of tumors in left lateral and median lobes but not in right lateral and caudate lobes between treated and untreated animals were significant (P=0.006 and P=0.1, respectively). […]

[2] = cited from earlier work
[3] = cited from earlier work; remark: listed apart in the source
[4] = 20 mg FMK/kg daily oral 14 days
[5] = +FMK, 20 mg/kg daily oral 14 days, ± SEM, n = 16
[6] = weighted by relative lobe wet weight

For O=C(CF)[C@H](CCc1ccccc1)NC(=O)[C@H](Cc1ccccc1)NC(=O)N1CCOCC1 [FMK, Mu-Phe-homoPhe-fluoro-methylketone] ({Morpholide-CO}-Phe-[hPhe]-CH2F), the “ratio of number of tumors in treated vs untreated rats (×100), caudate lobe” value [1, 4] was 278%, the “ratio of number of tumors in treated vs untreated rats (×100), left lateral lobe” value [1, 4] was 24% and the “ratio of number of tumors in treated vs untreated rats (×100), median lobe” value [1, 4] was 24%. The “ratio of number of tumors in treated vs untreated rats (×100), right lateral lobe” value [1, 4] was 91%, the “ratio of percentage volumes in treated and untreated rats (×100), caudate lobe” value [1, 4] was 283% and the “ratio of percentage volumes in treated and untreated rats (×100), left lateral lobe” value [1, 4] was 17%. The “ratio of percentage volumes in treated and untreated rats (×100), median lobe” value [1, 4] was 3%, the “ratio of percentage volumes in treated and untreated rats (×100), right lateral lobe” value [1, 4] was 35% and the “average size of tumors in large lobes, treated relative to untreated” value ([1]; 20 mg FMK/kg per day) was 40%. For the same compound, the “effect on number of tumors in the caudate lobe” value ([1]; 20 mg FMK/kg per day) was “increased rather than decreased, although the difference was not significant”, the “effect on size of tumors in the caudate lobe” value ([1]; 20 mg FMK/kg per day) was “not affected” and the “number of tumors per unit volume in caudate lobe vs other lobes in treated rats” value ([1]; 20 mg FMK/kg per day) was 20 fold. For the same compound, the “reduction of total volume of tumors in the large lobes (average)” value ([1]; 20 mg FMK/kg per day) was 80%, the “reduction of number of tumors in the large lobes (average)” value ([1]; 20 mg FMK/kg per day, one week before until one week after cells) was 60% and the “number of tumors, caudate lobe” value [1, 5] was 14.2 ± 7.5 per unit volume of liver tissu. For the same compound, the “number of tumors, left lateral lobe” value [1, 5] was 0.5 ± 0.2 per unit volume of liver tissu, the “number of tumors, median lobe” value [1, 5] was 0.4 ± 0.2 per unit volume of liver tissu and the “number of tumors, right lateral lobe” value [1, 5] was 1.0 ± 0.4 per unit volume of liver tissu. For the same compound, the “percentage volume of tumors, caudate lobe” value [1, 5] was 49.8 ± 38.5%, the “percentage volume of tumors, left lateral lobe” value [1, 5] was 1.4 ± 0.5% and the “percentage volume of tumors, median lobe” value [1, 5] was 0.3 ± 0.6%. For the same compound, the “percentage volume of tumors, right lateral lobe” value [1, 5] was 1.1 ± 0.2%, the “effect on number or size of metastases, caudate lobe” value ([1]; in vivo treatment with FMK) was “does not reduce number or size of metastases” and the “reduction of mean number of tumors in the entire liver” value [1, 6] was 35%. For the same compound, the “reduction of mean volume of tumors in the entire liver” value [1, 6] was 57%, the toxicity [2] was “non-toxic” and the “LD50 relative to the dosages used (20 mg/kg)” value ([2]; this type of FMK) was “at least 20 fold”. The water solubility [3] was “water-soluble”.
